From ChEMBL document CHEMBL2016549, “Bioconversion of silybin to phase I and II microbial metabolites with retained antioxidant activity” (Bioorg Med Chem, 2012)

Key:
[1] = system: Radical scavenging activity; assay: Antioxidant activity assessed as DPPH radical scavenging activity by densitometric analysis; format: functional
[2] = system: Radical scavenging activity; assay: Antioxidant activity assessed as DPPH radical scavenging activity by densitometric analysis relative to ascorbic acid; format: functional

SMILES	IC50 [1]	Activity [2]
COc1cc(C2Oc3cc([C@H]4Oc5cc(OS(=O)(=O)O)cc(O)c5C(=O)[C@@H]4O)ccc3OC2CO)ccc1O (mixture of isomers)	831 µM	–
COc1cc(C2Oc3cc([C@H]4Oc5c(O)c(O)cc(O)c5C(=O)[C@@H]4O)ccc3OC2CO)ccc1O (mixture of isomers)	30.3 µM	25%
COc1cc(C2Oc3cc(-c4oc5cc(OS(=O)(=O)O)cc(O)c5c(=O)c4O)ccc3OC2CO)ccc1O (mixture of isomers)	99.7 µM	–
O=C1O[C@H]([C@@H](O)CO)C(O)=C1O [ASCORBIC ACID]	7.7 µM	–
COc1cc(C2Oc3cc([C@H]4Oc5cc(O)cc(O)c5C(=O)[C@@H]4O)ccc3OC2CO)ccc1O (mixture of isomers) [SILIBININ]	284 µM	–
